According to ChEMBL document CHEMBL1201862, “PubChem BioAssay data set” (2004):
Active and inactive are the calls of the source.

Columns and labels:
[1] = target: T1, Low molecular weight phosphotyrosine protein phosphatase (Homo sapiens, UniProt P24666); type: functional; conditions: read-out: IC50_Mean;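 note: Dose-response confirmation assay measuring inhibition of LMPTP enzyme activity by fluorescence intensity read-out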
T1 sequence (P24666 whole entry): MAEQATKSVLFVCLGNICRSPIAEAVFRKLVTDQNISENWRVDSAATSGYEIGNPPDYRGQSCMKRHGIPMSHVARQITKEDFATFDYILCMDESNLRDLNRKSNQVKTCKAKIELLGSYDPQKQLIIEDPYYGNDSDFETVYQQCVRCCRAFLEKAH

cells [2] = type: functional, cell-based
cells [3] = type: functional, cell-based; remark: listed apart in the source
[4] = human group III sPLA2 inhibitors, dose response, biochemical, QFRET, IC50 (AID 743457);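 note: green fluorescence rise as the enzyme cleaves BODIPY PC-A2 in liposomes; potency for inhibition of the enzyme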
Leucine aminopeptidase = target: T2, Leucine aminopeptidase (Plasmodium falciparum 3D7, UniProt Q8IL11); assay: P. falciparum M17LAP inhibitors, primary screen, biochemical, fluorogenic H-Leu-NHMec substrate, 1536-well (AID 1619); type: functional
T2 sequence (Q8IL11 whole entry): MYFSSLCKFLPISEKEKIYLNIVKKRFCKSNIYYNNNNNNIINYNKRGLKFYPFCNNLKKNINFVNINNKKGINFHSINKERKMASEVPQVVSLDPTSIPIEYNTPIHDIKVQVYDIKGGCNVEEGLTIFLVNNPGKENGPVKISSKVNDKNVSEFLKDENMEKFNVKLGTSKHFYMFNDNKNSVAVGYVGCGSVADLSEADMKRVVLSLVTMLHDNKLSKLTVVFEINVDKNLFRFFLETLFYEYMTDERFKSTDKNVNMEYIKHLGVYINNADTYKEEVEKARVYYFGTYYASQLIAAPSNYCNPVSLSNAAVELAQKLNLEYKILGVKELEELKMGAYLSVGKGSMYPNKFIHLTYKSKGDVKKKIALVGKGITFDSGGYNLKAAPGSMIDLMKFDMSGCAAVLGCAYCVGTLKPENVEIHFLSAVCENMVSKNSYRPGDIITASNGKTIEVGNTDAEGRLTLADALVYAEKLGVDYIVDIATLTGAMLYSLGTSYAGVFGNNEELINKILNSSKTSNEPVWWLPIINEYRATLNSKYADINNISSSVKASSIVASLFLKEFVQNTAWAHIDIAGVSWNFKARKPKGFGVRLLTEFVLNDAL

Melanocortin receptor 4 = Melanocortin receptor 4 (Homo sapiens, UniProt P32245); type: functional, cell-based;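 note: Cell-based assay with luminescence read-out, confirmatory dose-response testing for agonist activity of biased ligands at MC4R; human U2OS cells with tagged receptor and beta-arrestin; potency of agonists that increase receptor coupling to beta-arrestin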
[5] = Shn3 3'UTR reporter inhibitors, dose response, cell-based, Clone20 osteoblasts, firefly luciferase, cherry-picked (AID 624132); type: functional;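 note: firefly luciferase luminescence from reporter carrying the Shn3 3'UTR in osteoblasts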
[6] = HepG2 cell cytotoxicity, dose response, cytotoxicity control for Shn3 inhibitor project, CellTiter-Glo, cherry-picked (AID 624134); type: functional, cell-based
[7] = control 3'UTR Renilla luciferase suppression, dose response, counter-screen for Shn3 inhibitor project, cell-based, Clone20-Shn3RL, cherry-picked (AID 624133); type: functional
[8] = target: Photoreceptor-specific nuclear receptor (Homo sapiens, UniProt Q9Y5X4); type: functional, cell-based;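 note: CHO-S cells with Gal4-NCOR and VP16-NR2E3 two-hybrid luciferase reporter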
Bcl-2-related protein A1 = target: T3, Bcl-2-related protein A1 (Mus musculus, UniProt Q07440); type: functional;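 note: confirmatory dose–response counterscreen on Bfl-1, used to check hits from a UBC13 polyubiquitin inhibitor campaign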
T3 sequence (Q07440 whole entry): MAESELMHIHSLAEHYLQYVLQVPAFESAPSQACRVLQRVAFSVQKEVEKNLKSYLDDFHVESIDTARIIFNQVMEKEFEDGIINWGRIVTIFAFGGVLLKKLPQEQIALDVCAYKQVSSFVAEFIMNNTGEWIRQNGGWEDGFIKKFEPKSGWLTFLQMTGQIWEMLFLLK

[9] = target: T4, Ubiquitin-conjugating enzyme E2 N (Homo sapiens, UniProt P61088); type: functional
T4 sequence (P61088 whole entry): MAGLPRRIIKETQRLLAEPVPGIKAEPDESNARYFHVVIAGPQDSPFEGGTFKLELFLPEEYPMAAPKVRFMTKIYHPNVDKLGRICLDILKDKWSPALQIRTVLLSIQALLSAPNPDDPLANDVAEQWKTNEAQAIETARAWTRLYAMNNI

[10] = target: T4, Ubiquitin-conjugating enzyme E2 N; type: functional; remark: listed apart in the source
[11] = Fluorescence-based cell-based high throughput dose response assay for inhibitors of the interaction of nucleotide-binding oligomerization domain containing 2 (NOD2) and the receptor-interacting serine-threonine kinase 2 (RIPK2).; type: functional; conditions: Homo sapiens
[12] = target: T5, Apoptotic protease-activating factor 1 (Homo sapiens, UniProt O14727); type: functional
T5 sequence (O14727 whole entry): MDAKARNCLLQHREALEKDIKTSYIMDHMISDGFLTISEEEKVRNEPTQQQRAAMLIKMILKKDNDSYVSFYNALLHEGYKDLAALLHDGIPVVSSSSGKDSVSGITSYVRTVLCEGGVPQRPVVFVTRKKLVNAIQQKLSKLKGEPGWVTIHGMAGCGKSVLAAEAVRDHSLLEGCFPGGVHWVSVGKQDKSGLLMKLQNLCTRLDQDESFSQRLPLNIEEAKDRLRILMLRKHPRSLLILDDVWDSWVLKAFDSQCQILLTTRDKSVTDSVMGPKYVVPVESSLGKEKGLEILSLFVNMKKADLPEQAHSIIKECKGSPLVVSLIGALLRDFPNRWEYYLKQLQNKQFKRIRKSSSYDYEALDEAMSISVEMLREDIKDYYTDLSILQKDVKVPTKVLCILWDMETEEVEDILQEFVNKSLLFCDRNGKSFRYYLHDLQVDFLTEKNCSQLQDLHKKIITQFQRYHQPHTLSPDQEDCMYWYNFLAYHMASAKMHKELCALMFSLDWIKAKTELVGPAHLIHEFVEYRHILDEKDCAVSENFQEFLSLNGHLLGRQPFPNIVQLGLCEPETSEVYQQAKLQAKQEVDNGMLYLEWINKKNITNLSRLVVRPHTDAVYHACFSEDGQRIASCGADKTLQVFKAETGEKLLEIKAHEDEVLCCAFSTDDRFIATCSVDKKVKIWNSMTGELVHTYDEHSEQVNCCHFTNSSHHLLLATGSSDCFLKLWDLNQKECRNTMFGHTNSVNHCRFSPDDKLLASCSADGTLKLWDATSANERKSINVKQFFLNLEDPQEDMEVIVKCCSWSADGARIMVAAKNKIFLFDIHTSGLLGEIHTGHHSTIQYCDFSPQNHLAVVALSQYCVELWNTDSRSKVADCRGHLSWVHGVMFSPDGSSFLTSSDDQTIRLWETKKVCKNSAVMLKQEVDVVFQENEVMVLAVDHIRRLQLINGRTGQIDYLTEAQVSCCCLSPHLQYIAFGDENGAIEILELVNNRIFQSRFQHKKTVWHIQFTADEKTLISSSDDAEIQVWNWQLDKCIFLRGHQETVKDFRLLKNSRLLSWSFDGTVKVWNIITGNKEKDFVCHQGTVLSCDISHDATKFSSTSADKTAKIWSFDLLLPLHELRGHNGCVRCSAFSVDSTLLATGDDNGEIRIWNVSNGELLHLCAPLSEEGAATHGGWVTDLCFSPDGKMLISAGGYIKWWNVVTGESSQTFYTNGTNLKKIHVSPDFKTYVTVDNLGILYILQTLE

P388/ADR = assay: cells; type: functional; conditions: Mus musculus
SN12K1 = assay: cells; type: functional; conditions: Homo sapiens
P388 = assay: cells; type: functional; conditions: Mus musculus
[13] = target: T6, Replicative DNA helicase DnaB (Mycobacterium tuberculosis, UniProt P9WMR3); assay: DnaB intein splicing inhibitors, dose response, biochemical, cell-free fluorescence (AID 449749); type: functional
T6 sequence (P9WMR3 whole entry): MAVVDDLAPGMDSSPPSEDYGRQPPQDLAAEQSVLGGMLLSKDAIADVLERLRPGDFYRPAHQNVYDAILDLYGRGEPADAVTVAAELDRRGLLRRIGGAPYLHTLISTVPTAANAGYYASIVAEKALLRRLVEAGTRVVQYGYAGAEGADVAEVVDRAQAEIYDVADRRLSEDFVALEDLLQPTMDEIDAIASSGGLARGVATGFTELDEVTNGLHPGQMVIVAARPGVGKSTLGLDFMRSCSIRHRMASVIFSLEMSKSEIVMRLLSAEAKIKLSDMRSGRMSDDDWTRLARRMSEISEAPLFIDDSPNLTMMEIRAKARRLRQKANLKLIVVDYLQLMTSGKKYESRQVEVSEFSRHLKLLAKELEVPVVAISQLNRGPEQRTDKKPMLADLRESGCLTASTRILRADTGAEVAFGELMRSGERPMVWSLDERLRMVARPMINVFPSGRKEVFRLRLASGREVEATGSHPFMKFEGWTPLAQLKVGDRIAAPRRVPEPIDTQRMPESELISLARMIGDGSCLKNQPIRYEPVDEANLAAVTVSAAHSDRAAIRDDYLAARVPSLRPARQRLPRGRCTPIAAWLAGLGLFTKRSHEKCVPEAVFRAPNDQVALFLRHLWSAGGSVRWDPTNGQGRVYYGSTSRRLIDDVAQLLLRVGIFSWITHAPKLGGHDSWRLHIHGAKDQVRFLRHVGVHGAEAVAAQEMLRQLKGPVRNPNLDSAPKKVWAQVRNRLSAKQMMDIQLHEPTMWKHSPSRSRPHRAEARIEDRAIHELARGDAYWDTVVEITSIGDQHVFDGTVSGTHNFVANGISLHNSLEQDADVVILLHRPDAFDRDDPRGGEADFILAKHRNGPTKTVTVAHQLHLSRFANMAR

Protein RecA = target: T7, Protein RecA (Mycobacterium tuberculosis, UniProt P9WHJ3); assay: Fluorescence Cell-Free Homogeneous Dose Retest to Identify Inhibitors of RecA-Intein Splicing Activity. [Related pubchem assays (depositor defined):AID2097, AID2223, AID489010, AID492950]; type: functional
T7 sequence (P9WHJ3 whole entry): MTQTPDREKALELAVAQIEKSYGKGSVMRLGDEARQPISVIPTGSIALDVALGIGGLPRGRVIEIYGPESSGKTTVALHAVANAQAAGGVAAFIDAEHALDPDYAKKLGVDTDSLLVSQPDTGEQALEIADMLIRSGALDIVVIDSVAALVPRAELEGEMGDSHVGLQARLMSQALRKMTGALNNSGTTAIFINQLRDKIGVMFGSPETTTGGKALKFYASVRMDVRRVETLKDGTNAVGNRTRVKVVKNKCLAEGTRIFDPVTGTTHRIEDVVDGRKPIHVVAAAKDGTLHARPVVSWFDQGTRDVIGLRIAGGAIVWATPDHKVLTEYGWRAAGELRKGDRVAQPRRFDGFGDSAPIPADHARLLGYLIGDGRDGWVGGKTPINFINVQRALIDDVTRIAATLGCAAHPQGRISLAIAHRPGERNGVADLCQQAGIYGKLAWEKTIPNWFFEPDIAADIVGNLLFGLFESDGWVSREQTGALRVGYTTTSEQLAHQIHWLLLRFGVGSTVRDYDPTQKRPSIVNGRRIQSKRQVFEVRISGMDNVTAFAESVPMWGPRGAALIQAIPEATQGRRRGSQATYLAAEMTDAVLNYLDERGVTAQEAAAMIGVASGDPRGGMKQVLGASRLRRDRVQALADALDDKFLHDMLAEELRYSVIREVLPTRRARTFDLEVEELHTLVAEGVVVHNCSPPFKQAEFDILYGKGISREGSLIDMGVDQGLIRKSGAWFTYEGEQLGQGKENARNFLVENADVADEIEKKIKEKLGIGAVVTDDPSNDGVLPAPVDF

Chain of Melanocortin receptor 4 (P32245 whole entry): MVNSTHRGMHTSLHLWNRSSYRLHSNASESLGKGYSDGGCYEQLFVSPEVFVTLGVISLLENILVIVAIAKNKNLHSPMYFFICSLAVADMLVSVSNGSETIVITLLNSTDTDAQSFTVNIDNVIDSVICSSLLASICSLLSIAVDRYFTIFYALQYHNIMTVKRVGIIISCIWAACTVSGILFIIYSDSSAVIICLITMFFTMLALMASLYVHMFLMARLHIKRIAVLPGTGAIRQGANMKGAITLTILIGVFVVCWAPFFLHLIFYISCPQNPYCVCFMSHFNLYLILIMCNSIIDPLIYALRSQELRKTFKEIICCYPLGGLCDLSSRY
Chain of Photoreceptor-specific nuclear receptor (Q9Y5X4 whole entry, the tested form may be a part): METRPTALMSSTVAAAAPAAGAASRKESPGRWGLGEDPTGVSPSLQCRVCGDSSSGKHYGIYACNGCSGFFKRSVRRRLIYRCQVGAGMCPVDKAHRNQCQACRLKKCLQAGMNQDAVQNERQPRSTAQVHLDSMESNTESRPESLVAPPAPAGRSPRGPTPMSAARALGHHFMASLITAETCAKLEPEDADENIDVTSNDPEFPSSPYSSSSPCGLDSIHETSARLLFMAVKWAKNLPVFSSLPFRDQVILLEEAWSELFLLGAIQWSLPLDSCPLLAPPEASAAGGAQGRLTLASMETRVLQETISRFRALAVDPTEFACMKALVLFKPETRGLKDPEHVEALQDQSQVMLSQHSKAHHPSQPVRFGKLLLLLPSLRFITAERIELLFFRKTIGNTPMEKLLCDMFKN

## CCn1cc(C(=O)O)c(=O)c2cc(F)c(N3CCN(C(=S)NC(=O)c4ccccc4Cl)CC3)cc21
[1]
  IC50: 5.84 µM (active)

## CC1OC(NCCc2ccccc2)C(O)C(O)C1O (centres undefined)
Cells [2]
  IC50: > 29.9 µM (inactive)
Cells [3]
  EC50: > 29.9 µM (inactive)

## Cc1csc(NC(=S)NC(=O)c2ccccc2)n1
[4]
  IC50: > 122 µM (inactive)

## C/C(=C\c1ccco1)C1C(C#N)=C(N)Oc2[nH]nc(-c3ccc(C)cc3)c21 (centres undefined)
Leucine aminopeptidase
  IC50: 132 µM (active)
Melanocortin receptor 4
  EC50: > 89.2 µM (inactive)

## CN(CC(=O)Nc1ccccc1Cl)C(=O)c1cccc(S(=O)(=O)N2CCN(c3ccc(F)cc3)CC2)c1
[5]
  AC50: 3.62 µM (active)
[6]
  AC50: > 70 µM (inactive)
[7]
  AC50: 3.53 µM (active)
[8]
  IC50: 8.34 µM (active)

## Cc1nnc(C)c2c(C)n(-c3ccc4ncccc4c3)c(C)c12
[1]
  IC50: 45.2 µM (inactive)

## CN(C)CCC(=O)C(Cc1ccccc1)c1ccccc1 (centres undefined)
Bcl-2-related protein A1
  IC50: > 20 µM (inactive)
[9]
  IC50: 13.3 µM (active)
[10]
  IC50: > 20 µM (inactive)
[11]
  IC50: 4.6 µM (active)

## CN(Cc1ccc(Cl)c(Cl)c1)C(=O)c1cccc(S(=O)(=O)N2CCN(Cc3ccccc3)CC2)c1
Bcl-2-related protein A1
  IC50: > 20 µM (inactive)
[9]
  IC50: 18.4 µM (active)
[10]
  IC50: 12.5 µM (active)
[12]
  IC50: 42.7 µM (active)
[5]
  AC50: 3.47 µM (active)
[6]
  AC50: > 70 µM (inactive)
[7]
  AC50: 7.2 µM (active)

## Nc1ccn(C2OC(COP(=O)(O)Oc3ccccc3)C(O)C2O)c(=O)n1 (centres undefined)
P388/ADR
  GI50: 0.675 µM (active)
SN12K1
  GI50: 5.56 µM (inactive)
P388
  GI50: 0.264 µM (active)

## CN1C(=O)c2ccccc2NC(=O)c2cnn(C)c21
P388/ADR
  GI50: > 100 µM (inactive)
SN12K1
  GI50: > 100 µM (inactive)
P388
  GI50: > 100 µM (inactive)

## CC(=O)Nc1cc(-c2cccnc2)cn2c(-c3cccc(C(F)(F)F)c3)cnc12
Melanocortin receptor 4
  EC50: 84.1 µM (inactive)

## COc1ccc2nc3ccccc3c(NCCN(C)CCCl)c2c1
P388/ADR
  GI50: 0.424 µM (active)
SN12K1
  GI50: 0.684 µM (active)
P388
  GI50: 0.256 µM (active)

## CC(=O)c1c(C)[nH]c(C(=O)OCC(=O)c2ccc(Br)cc2)c1C
[8]
  IC50: 3.35 µM (active)

## CC(=O)N(C1=C(N2CCOCC2)C(=O)c2ccccc2C1=O)c1ccc(C(=O)O)cc1
[13]
  AC50: 16.7 µM (active)
[12]
  IC50: 26.2 µM (active)
Protein RecA
  EC50: 1.01 µM (active)

## COC1=CC(=O)c2c(c(O)c3oc4cc(OC)cc(C)c4c(=O)c3c2O)C1=O [BIKAVERIN]
P388/ADR
  GI50: 1.04 µM (active)
SN12K1
  GI50: 0.422 µM (active)
P388
  GI50: 0.695 µM (active)
